Like-named read-outs stand apart in the source and are kept apart here.
Columns and labels:
DYRK1A = target: T1, DYRK1A (Homo sapiens, UniProt Q13627); set-up: method as in Funnell et al, 2017; conditions: enzymatic assay; ref Funnell et al, 2017; read-out: IC50 (nmol/L) DYRK1A; cited from earlier work
T1 construct: purchased DiscoverX Corporation (Fremont, CA, USA)

DYRK1B = DYRK1B (Homo sapiens, UniProt Q9Y463); set-up: method as in Funnell et al, 2017; conditions: enzymatic assay; ref Funnell et al, 2017; read-out: IC50 (nmol/L) DYRK1B; cited from earlier work
Sequence of DYRK1B (Q9Y463 whole entry): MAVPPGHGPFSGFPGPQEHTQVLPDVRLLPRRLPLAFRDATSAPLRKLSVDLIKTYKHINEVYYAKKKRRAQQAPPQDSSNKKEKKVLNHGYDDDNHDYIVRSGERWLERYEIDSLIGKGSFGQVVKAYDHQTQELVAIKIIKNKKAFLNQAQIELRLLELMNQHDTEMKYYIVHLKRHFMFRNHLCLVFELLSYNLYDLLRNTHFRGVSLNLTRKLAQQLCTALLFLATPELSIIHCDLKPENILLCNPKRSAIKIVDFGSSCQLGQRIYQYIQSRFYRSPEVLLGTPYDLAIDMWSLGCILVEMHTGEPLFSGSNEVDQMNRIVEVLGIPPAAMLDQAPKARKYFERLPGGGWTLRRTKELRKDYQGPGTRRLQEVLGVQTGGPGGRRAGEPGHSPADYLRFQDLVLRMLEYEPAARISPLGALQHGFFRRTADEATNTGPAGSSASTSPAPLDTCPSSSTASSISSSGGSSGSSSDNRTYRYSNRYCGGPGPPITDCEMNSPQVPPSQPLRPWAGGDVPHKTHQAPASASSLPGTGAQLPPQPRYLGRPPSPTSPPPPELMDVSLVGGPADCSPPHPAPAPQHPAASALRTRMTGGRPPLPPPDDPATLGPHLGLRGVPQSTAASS

CLK1 = CLK1 (Homo sapiens, UniProt P49759); set-up: method as in Funnell et al, 2017; conditions: enzymatic assay; ref Funnell et al, 2017; read-out: IC50 (nmol/L) CLK1; cited from earlier work
Sequence of CLK1 (P49759 whole entry): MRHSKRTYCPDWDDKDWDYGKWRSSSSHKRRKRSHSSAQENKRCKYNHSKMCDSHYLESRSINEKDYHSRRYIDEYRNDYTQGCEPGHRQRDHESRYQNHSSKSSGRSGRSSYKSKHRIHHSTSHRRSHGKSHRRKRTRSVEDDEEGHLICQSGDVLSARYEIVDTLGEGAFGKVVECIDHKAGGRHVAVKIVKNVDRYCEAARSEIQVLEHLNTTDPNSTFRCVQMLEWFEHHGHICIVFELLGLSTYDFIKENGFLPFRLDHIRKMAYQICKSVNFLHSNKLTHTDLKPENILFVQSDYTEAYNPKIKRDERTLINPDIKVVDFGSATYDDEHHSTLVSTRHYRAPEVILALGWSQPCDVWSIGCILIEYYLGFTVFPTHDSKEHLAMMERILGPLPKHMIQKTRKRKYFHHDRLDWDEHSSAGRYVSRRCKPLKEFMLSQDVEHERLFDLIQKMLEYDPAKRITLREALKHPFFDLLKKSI

HCT116 cells = test: Modulation of the 125 T-025-dependent skipped exons (RNA-Seq, MISO); format: cell-based; conditions: |ΔPSI| > 0.4, T3 AS events from Funnell et al, 2017
Experimental: The RNA‐Seq was performed at Takara Bio Inc. (Shiga, Japan) or Macrogen, Inc. (Seoul, South Korea) by using HiSeq2000 or HiSeq4000 (Illumina Inc., San Diego, CA, USA). Splicing bioinformatics analysis using MISO and pathway analysis using Cytoscape (Shannon et al, 2003) were performed as previously described (Funnell et al, 2017). Briefly, the BAM alignment files produced by TopHat and the files for AS events (for hg19) provided by MISO were used as inputs. […] For clustering, we used 1,320 splicing events with ΔPSI > 0.4, the BF > 20, and SD of PSI for each splicing event > 0.2. Hierarchical clustering was performed using heatmap3 from the R package.

[1] = system: MYC-inducible SK-MEL-28 cells; test: Growth inhibition in MYC-inducible SK-MEL-28 cells; format: cell-based; conditions: Homo sapiens, read-out: IC50 (nmol/L) (95% CI)
Experimental: To obtain an MYC‐inducible cell line, SK‐MEL‐28 cells were engineered via stable lentiviral transduction to express an empty pTRIPZ vector (Open Biosystems/GE Healthcare Dharmacon Inc., Lafayette, CO, USA) or a Tet‐inducible promoter‐driven MYC gene. Infected cells were selected with geneticin for 4 days, left to recover for 24 h, and treated with 0.5 μg/ml Dox (Sigma‐Aldrich, St. Louis, MO, USA). U2OS cells were similarly engineered to express an empty pBABE vector (Cell Biolabs, Inc., San Diego, CA, USA) or a MYC‐estrogen receptor (MYC‐ER) transgene via 3 days of puromycin selection followed by treatment with 0.5 μmol/l tamoxifen (Sigma‐Aldrich).
Silencer Select Pre-designed siRNAs purchased from Ambion (Thermo Fisher
Scientific) were used. The siRNA ID# and sequence are shown below: […]
Cell proliferation assay, Caspase-3/7 assay
Cell proliferation was measured using CellTiter-Glo luminescent cell viability
assay (Promega, Fitchburg, WI, U.S.A.). Caspase-3/7 activity was measured using
Caspase-Glo 3/7 Assay Systems (Promega). Luminescence of each well was measured
using ARVO Light (PerkinElmer Inc., Waltham, MA, U.S.A.). The IC50 value and 95%
confidential intervals were estimated using GraphPad Prism 5 (GraphPad Software,
Inc., La Jolla, CA, U.S.A.). […]

IC50 ([1]; SK-MEL-28, 72 h, myc - Dox): 471 nmol/L
IC50 ([1]; SK-MEL-28, 72 h, vector - Dox): 459 nmol/L
IC50 ([1]; SK-MEL-28, myc + Dox (48 h pretreatment), 72 h): 294 nmol/L
IC50 ([1]; SK-MEL-28, vector + Dox (48 h pretreatment), 72 h): 471 nmol/L
Compound: CN1CCN(C(=O)C(C)(C)c2ccc(C(=O)Nc3cn4cc(-c5ccncc5)ccc4n3)cc2)CC1 [T3]
IC50 (DYRK1A): 230 nmol/L
IC50 (DYRK1B): 260 nmol/L
IC50 (CLK1): 0.63 nmol/L
share of the 125 T-025-dependent SEs also changed (HCT116 cells; T3 at 500 nmol/l): 58.4%
share of the 125 T-025-dependent SEs also changed (HCT116 cells; T3 at 1,000 nmol/l): 77.6%

From paper PMC5991599, “Anti‐tumor efficacy of a novel CLK inhibitor via targeting RNA splicing and MYC‐dependent vulnerability” (EMBO Molecular Medicine, 2018)
